The record followed here is patent publication US10973835B2, “Boron-containing small molecules for inhibiting activity of a receptor-like protein tyrosine phosphatase” (The Penn State Research Foundation, priority 2017, dated 2021).

Data set [1] has as its target LAR-oxidized (Leukocyte common antigen-related, LAR) (Homo sapiens, UniProt P10586). The experiment in a line: RPTP assay, standard assay conditions: phosphatase activity of oxidized LAR (DiFMUP substrate, TCEP reduction). The format is biochemical. The method, then: (§1) Leukocyte common antigen-related (LAR) and PTPσ were used as illustrative type IIa RPTPs. Illustratively, purified LAR (100 nM) was mixed with H2O2 (2 mM) in phosphatase assay buffer (50 mM HEPES, pH 7.0, 100 mM NaCl, 0.1% BSA) at room temperature for 10 minutes. Excess H2O2 was removed with a Zeba™ Desalting Column (Thermo Scientific) equilibrated in the assay buffer without any reducing agent. Phosphatase activity was measured for each protein sample using 6,8-difluoro-4-methylumbiliferyl phosphate (DiFMUP) as the substrate, with or without 5 mM Tris(2-carboxyethyl)phosphine hydrochloride (TCEP). Activity of the oxidized sample was compared to that of the untreated (unoxidized) sample in the presence of 5 mM TCEP.
(§2) LAR-OX (10 nM) was incubated with compounds (0.1 mM) for varying lengths of time and the phosphatase activity was monitored using DiFMUP as substrate following reduction of the PTP with TCEP (5 mM). TCEP was not removed before adding DiFMUP. DiFMUP was added right after TCEP and the activity was followed continuously for 60 minutes. […] The above protocol was used to test the activity of other phosphatases (PTP1B, PTPσ, SHP2, PTPα, PTEN, and JSP1).

A further data set addresses PTPσ-oxidized (Homo sapiens, UniProt Q13332). The experiment in a line: RPTP assay, standard assay conditions: phosphatase activity of oxidized PTPσ. Format: biochemical. Here is the method: as §1, §2
The subject of data set [2] is MuSK phosphorylation (LAR dephosphorylating MuSK) in C2C12 myotubes. The experiment in a line: MuSK tyrosine phosphorylation in agrin-stimulated C2C12 myotubes (anti-pTyr immunoprecipitation, anti-MuSK blot). The format is cell-based, mouse. Here is the method:
C2C12 cells serum starved (8 hours) and then treated with CL-37 for 1 hour. Following which, cells were stimulated with Agrin (10 nM) for varying lengths of time (0-60 minutes). The cells were lysed and lysates were used to immunoprecipitate tyrosine phosphorylated proteins using 4G10® (05-321 from EMD Milliooire Corp. and PY20 (such as ab10321 fromabcam Plc) antibodies for 90 minutes at 4 C. The immunocomplexes were washed and resolved on SDS gels and immunoblotted using anti-MUSK antibody. For the immunoprecipitation experiments, 1 mg of total cell lysate was incubated with anti-pTyr antibodies at 4° C. for 90 minutes. The interacting protein complexes were immunoprecipitated after incubating the lysate-antibody mixture with protein A/G Sepharose® at 4° C. for 30 minutes. After immunoprecipitation, Sepharose® beads were washed three times at 4° C. with wash buffer (PBS, pH 7.4, 0.05% BSA, 0.05% Tween®-20 and protease inhibitors). Complexes were separated by SDS-PAGE and immunoblotted using anti-MUSK antibody.

A further data set concerns C2C12 cells. The experiment in a line: Cell vitality under the MuSK phosphorylation experimental condition. The format is cell-based, mouse. To be noted: C2C12, experimental condition of FIG. 3.
Data set [3] in a line: Stability of difluoroborate compounds using 19F and 11B NMR. To be noted: acetonitrile-d3 alone and 80% acetonitrile-d3/20% D2O; up to seven days; room temperature.
[4] abbreviates: Table 2, Formula III, R1 and R2 para to boron, read-out: LAR-ox Ki.
[5] abbreviates: FIG. 1, oxidized form, 0.1 to 100 μM compound.
[6] abbreviates: Table 1, Formula II, potassium salt, R1 and R2 para to boron, read-out: LAR-ox Ki.
Where [7] appears, read: FIG. 4, assay similar to FIG. 3, agrin stimulation.
Setting [8] is: Table 3, Formula IV, read-out: LAR-ox Ki.

pKi: −log10 of the molar value. Entries after “also recorded” stand apart in the source; their conditions may differ. Where two headings read alike, the source gives them in different places.

LAR-oxidized (Leukocyte common antigen-related, LAR), sequence (P10586 30-1907): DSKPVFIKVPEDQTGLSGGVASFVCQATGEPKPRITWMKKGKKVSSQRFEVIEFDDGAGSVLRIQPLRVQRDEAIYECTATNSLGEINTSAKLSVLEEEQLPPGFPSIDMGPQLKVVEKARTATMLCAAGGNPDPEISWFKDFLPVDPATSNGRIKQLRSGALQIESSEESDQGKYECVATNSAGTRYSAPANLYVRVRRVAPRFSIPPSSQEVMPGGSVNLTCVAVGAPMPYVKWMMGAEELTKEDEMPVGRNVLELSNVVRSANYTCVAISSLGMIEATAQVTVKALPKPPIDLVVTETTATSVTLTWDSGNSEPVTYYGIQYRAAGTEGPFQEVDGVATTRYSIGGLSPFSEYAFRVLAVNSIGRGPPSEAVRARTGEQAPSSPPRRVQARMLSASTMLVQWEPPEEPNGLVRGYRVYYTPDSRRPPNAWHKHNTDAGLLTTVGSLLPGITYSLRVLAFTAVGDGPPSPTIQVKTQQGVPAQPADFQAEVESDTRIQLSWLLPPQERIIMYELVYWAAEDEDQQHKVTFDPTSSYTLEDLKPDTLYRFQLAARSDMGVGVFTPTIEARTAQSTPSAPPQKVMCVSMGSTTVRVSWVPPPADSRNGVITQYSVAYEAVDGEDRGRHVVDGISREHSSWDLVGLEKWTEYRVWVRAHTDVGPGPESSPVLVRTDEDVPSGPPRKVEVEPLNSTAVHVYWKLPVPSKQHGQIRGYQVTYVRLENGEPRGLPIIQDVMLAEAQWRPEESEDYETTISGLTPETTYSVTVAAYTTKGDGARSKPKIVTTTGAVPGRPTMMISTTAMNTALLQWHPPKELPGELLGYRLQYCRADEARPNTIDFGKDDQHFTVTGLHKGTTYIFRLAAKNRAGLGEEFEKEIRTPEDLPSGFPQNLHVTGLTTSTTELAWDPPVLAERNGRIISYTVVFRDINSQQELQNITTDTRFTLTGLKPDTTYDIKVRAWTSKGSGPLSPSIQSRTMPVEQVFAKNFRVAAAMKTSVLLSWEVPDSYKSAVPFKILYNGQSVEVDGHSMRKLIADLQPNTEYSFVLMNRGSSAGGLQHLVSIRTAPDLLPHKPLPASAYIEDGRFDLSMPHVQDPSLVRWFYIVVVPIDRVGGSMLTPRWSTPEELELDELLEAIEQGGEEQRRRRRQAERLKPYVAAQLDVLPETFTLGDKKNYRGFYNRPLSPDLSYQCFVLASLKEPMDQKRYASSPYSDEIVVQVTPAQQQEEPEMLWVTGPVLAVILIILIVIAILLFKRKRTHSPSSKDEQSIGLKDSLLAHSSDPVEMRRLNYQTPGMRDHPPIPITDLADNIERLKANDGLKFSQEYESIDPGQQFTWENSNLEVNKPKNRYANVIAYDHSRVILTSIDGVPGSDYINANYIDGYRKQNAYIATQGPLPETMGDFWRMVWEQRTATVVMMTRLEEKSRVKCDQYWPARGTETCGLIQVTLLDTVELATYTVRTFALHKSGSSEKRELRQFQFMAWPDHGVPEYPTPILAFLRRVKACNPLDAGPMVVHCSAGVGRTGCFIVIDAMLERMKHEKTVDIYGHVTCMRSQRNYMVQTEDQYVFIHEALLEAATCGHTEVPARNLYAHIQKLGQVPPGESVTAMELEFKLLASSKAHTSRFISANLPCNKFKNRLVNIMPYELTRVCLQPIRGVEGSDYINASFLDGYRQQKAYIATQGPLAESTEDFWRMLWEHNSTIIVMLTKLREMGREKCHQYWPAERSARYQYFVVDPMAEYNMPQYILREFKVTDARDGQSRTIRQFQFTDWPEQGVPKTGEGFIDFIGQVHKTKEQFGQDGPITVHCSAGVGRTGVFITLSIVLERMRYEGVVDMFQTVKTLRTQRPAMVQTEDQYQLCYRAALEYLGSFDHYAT
PTPσ-oxidized, sequence (Q13332 30-1948): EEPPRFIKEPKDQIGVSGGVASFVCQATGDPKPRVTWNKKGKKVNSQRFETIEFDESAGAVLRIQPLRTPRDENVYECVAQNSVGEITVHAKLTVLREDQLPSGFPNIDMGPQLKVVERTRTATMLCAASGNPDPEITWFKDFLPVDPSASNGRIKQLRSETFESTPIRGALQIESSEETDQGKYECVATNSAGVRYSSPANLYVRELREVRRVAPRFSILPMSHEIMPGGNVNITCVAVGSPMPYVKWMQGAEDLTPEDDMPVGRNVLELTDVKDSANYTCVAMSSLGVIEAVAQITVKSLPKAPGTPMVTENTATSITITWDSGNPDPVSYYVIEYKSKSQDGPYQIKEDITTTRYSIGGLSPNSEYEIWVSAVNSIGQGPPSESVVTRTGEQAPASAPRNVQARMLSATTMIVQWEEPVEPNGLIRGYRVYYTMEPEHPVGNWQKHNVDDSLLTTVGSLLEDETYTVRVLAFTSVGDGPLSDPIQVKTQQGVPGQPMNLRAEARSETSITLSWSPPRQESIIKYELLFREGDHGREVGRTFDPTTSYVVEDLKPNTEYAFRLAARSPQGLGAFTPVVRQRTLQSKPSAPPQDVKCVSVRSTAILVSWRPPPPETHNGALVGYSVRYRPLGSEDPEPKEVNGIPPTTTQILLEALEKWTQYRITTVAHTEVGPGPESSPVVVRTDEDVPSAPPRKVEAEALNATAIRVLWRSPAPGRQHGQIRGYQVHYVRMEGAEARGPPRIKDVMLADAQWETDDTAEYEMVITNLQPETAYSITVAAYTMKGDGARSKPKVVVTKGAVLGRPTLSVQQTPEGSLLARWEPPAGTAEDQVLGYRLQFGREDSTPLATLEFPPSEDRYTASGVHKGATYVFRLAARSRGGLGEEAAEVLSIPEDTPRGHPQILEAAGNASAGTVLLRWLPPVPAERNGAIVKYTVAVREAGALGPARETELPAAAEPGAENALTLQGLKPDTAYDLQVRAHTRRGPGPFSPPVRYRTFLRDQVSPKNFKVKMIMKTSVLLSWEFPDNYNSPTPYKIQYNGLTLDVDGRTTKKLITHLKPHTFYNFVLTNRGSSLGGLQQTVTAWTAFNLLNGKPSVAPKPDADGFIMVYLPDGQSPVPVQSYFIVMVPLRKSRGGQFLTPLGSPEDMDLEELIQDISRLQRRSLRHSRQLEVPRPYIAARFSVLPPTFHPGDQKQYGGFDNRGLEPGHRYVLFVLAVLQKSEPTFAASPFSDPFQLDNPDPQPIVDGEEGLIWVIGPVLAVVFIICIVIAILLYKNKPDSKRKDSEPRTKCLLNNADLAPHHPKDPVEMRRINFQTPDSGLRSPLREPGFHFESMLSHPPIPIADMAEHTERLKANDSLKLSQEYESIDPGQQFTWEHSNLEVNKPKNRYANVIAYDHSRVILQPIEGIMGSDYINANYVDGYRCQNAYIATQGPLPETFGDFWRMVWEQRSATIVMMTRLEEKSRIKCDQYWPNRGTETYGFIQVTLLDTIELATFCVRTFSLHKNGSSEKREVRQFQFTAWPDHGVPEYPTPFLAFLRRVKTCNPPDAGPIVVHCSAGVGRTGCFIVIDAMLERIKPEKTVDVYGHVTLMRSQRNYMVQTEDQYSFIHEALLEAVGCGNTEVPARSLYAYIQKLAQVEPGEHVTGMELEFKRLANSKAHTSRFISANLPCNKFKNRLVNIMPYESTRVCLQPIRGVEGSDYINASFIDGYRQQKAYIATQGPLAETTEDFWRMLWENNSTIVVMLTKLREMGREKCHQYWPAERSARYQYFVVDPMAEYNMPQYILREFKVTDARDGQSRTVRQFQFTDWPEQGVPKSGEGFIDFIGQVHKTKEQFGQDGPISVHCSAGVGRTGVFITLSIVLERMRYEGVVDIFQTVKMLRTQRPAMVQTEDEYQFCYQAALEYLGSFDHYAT

In the case of `OB(c1ccccc1)c1ccccc1` [CL-30], in data set [1] (setting [4]), the pKi was 4.70.
With `F[B-](F)(c1ccccc1)c1ccccc1` [CL-37], in data set [1] (setting [5]), the “phosphatase activity of LAR (inhibition)” value is given as “most actively inhibited”. The pKi in data set [1] (setting [6]) is 5.30; at PTPσ-oxidized (read-out: PTPσ-oxidized Ki), 5.40. Further, the “phosphatase activity of PTP-sigma (inhibition)” value at PTPσ-oxidized (setting [5]) was “most actively inhibited”. In addition, the “phosphorylation level of MuSK versus control” value was “significantly higher than the control; also recorded: inhibits LAR from dephosphorylating MuSK” in data set [2] (FIG. 3, CL-37 5 μM, 1 hour pretreatment, agrin 10 nM, 0-60 minutes) and “higher phosphorylation; also recorded: enhance the phosphorylation level of MUSK” in data set [2] (setting [7]). The “effect on cell vitality” value in the data set with C2C12 cells is recorded as “did not exhibit an adverse effect on cell vitality”.
Regarding `C=CB(O)c1ccccc1` [CL-49], in data set [1] (read-out: LAR-oxidized Ki), the pKi was less than 3.00.
On to `COc1ccc([B-](F)(F)c2ccc(OC)cc2)cc1` [CL-60], for which the pKi in data set [1] (setting [6]) and in data set [1] (read-out: LAR-oxidized Ki) was less than 3.00 throughout.
As for `F[B-](F)(c1ccc(Cl)cc1)c1ccc(Cl)cc1` [CL-61], in data set [1] (setting [6]), the negative-log Ki (pKi) was 5.40.
Still for that read-out and setting: under `Fc1ccc([B-](F)(F)c2ccc(F)cc2)cc1` [CL-65] stands 5.40.
Turning to `F[B-](F)(F)c1ccc(-c2ccccc2)cc1` [CL-70], the pKi in data set [1] (read-out: LAR-oxidized Ki) was less than 3.00.
For the compound `OB(c1ccc(F)cc1)c1ccc(-c2ccccc2)cc1` [CL-73-2], the pKi in data set [1] (setting [4]) was 6.00. In data set [2] (setting [7]), the “phosphorylation level of MuSK versus control” value is given as “higher phosphorylation; also recorded: enhance the phosphorylation level of MUSK”.
For `Fc1ccc([B-](F)(F)c2ccc(-c3ccccc3)cc2)cc1` [CL-76], the negative logarithm of the Ki (pKi) in data set [1] (setting [6]) and in data set [1] (read-out: LAR-oxidized Ki) was 6.00 in each case. Further, in data set [2] (setting [7]), the “phosphorylation level of MuSK versus control” value is “higher phosphorylation; also recorded: enhance the phosphorylation level of MUSK”.
As for `F[B-](F)(c1ccc(Cl)cc1)c1ccc(-c2ccccc2)cc1` [CL-83], the “hydrolysis or degradation by 19F and 11B NMR” value in data set [3] is “no hydrolysis or degradation”.
For `OB1OCc2ccccc21` [Compound B-1], the pKi (in data set [1] (read-out: LAR-oxidized Ki); at PTPσ-oxidized) was less than 3.00 in each case.
Consider `Nc1ccc2c(c1)COB2O` [Compound B-2], for which the pKi (in data set [1] (read-out: LAR-oxidized Ki); at PTPσ-oxidized (read-out: PTPσ-oxidized Ki)) was less than 3.00 throughout.
`OB1OCCc2cc(F)ccc21` [Compound B-5]: the pKi (in data set [1] (setting [8]); in data set [1] (read-out: LAR-oxidized Ki); on PTPσ-oxidized (read-out: PTPσ-oxidized Ki)) was less than 3.00 in each case.
For the compound `OB1OCc2cc(F)ccc21` [Compound B-7], the pKi (in data set [1] (read-out: LAR-oxidized Ki); on PTPσ-oxidized (read-out: PTPσ-oxidized Ki)) was less than 3.00 each time.
As to `Nc1ccc2c(c1)B(O)OCC2` [Compound B-14], the results for the pKi (in data set [1] (setting [8]); at PTPσ-oxidized (read-out: PTPσ-oxidized Ki)) were 4.24 and 4.00, respectively.
Consider `OB1OCCc2ccccc21` [Compound S-4], for which, in data set [1] (setting [8]), the negative-log Ki (pKi) is 3.30.
On to `O=C(Nc1ccc2c(c1)B(O)OCC2)c1ccc(F)cc1` [Compound S-6], for which the pKi in data set [1] (setting [8]) and in data set [1] (read-out: LAR-oxidized Ki) was less than 3.00 throughout.
